Measured values as given in the Bradley open melting point set (2014).
Where “and” joins values, the source holds several entries; their conditions need not be identical. Identical values can stand only once. Counter-ions that a name gives are not always drawn.

Structure (SMILES) | melting point
COC(=O)c1ccncc1 [methyl isonicotinate] | 8 °C
COC(=O)c1ccc(N)cc1 [methyl p-aminobenzoate] | 114 °C
COC(=O)c1ccc(O)cc1 [methyl p-hydroxybenzoate] | 131 °C
COC(=O)c1ccc(O)cc1 [methyl-p-hydroxybenzoate] | 131 °C
COC(=O)c1ccc(OC)c(OC)c1 [methyl_3,4-dimethoxybenzoate] | 60 °C
COC(=O)c1cccc(O)c1 [methyl_3-hydroxybenzoate] | 74 °C
COC(=O)c1ccc(Br)cc1 [methyl_4-bromobenzoate] | 81 °C
COC(=O)c1ccc(O)cc1 [methyl_4-hydroxybenzoate] | 128 °C
COC(=O)c1ccc([N+](=O)[O-])cc1 [methyl_4-nitrobenzoate] | 96 °C
C=CC(=O)OC [methyl_acrylate] | -75 °C
COC(=O)c1ccccc1 [methyl_benzoate] | -12 °C
COC(=O)c1ccc(O)cc1 [methylparaben] | 131 °C
O=C4\C=C3/[C@]([C@H]2CC[C@]1([C@@H](CC[C@@]1(O)C)[C@@H]2CC3)C)(C)CC4 [methyltestosterone] | 163 °C
CCC1(CC)C(=O)NCC(C)C1=O (stereo not given) [methyprylon] | 75.5 °C
Cc1sc2ccccc2c1CC1=NCCN1 [metizoline] | 156 °C
COc1ccc(NC(=O)N(C)C)cc1Cl [metoxuron] | 127 °C
NC(=O)CS(=O)C(c1ccccc1)c1ccccc1 (stereo not given) [modafinil] | 164 °C
O[C@H]1[C@H](O)[C@@H](O)[C@H](O)[C@@H](O)[C@H]1O [myo-inositol] | 226 °C
CN(C)c1ccccc1 [n,n-dimethylaniline] | 3 °C
O=C1CCC(=O)N1Br [n-bromosuccinimide] | 180 °C
c1ccc2cc3cc4ccccc4cc3cc2c1 [naphthacene] | 357 °C
NC(=O)c1cccc2ccccc12 [naphthalene-1-carboxamide] | 208 °C
O=C(O)c1cccnc1 [nicotinic acid] [listing 1 of 2 here] | 237 °C
O=C(O)c1cccnc1 [nicotinic acid] [listing 2 of 2 here] | 237 °C (2×) and 238 °C
C1=CC2CCC1C2 [norbornene] | 46 °C
CC(=O)Oc1ccccc1C(N)=O [o-acetoxybenzamide] | 138 °C

Structure (SMILES) | melting point
Nc1ccccc1CO [o-amino_benzyl_alcohol] | 83 °C
NC(=O)c1ccccc1Cc1ccccc1 [o-benzylbenzamide] | 165 °C
Nc1ccccc1Br [o-bromoaniline] | 30 °C
O=[N+]([O-])c1ccccc1Br [o-bromonitrobenzene] | 43 °C
O=Cc1ccccc1Cl [o-chlorobenzaldehyde] | 11 °C
N#CCc1ccccc1C(=O)O [o-cyanomethyl_benzoic_acid] | 115 °C
Brc1ccccc1Br [o-dibromobenzene] | 7 °C
Clc1ccccc1Cl [o-dichlorobenzene] | -17 °C
NC(=O)c1ccccc1O [o-hydroxybenzamide] | 142 °C
O=C(O)c1ccccc1CO [o-hydroxymethyl_benzoic_acid] | 126 °C
COc1ccccc1[N+](=O)[O-] [o-nitroanisole] | 10 °C
N#Cc1ccccc1[N+](=O)[O-] [o-nitrobenzonitrile] | 109 °C
OCc1ccccc1-c1ccccc1 [o-phenylbenzyl_alcohol] | 50 °C
Cc1ccccc1C(=O)O [o-toluic acid] | 105 °C
Cc1ccccc1C(=O)O [o-toluic_acid] | 105 °C
Cc1ccccc1C [o-xylene] | -25 °C
O=C1CCC2C3CCC(=O)C3C12 (stereo not given) [octahydrocyclobuta[1,2-a:3,4-a']dicyclopentene-1,6-dione] | 67 °C
O=P(O)(O)O [orthophosphoric acid] | 20 °C
O=C1c3c(N(\C=C1\C(=O)O)CC)cc2OCOc2c3 [oxolinic acid] | 315 °C
N#CCc1ccc(CC#N)cc1 [p-Xylylene dicyanide] | 96 °C
CC(=O)c1ccc(-c2ccccc2)cc1 [p-acetylbiphenyl] | 122 °C
Nc1ccc(C(=O)O)cc1 [p-aminobenzoic acid] | 189 °C
Clc1ccc(Br)cc1 [p-bromochlorobenzene] | 67 °C
CCOc1ccc(N)cc1 [p-ethoxyaniline] | 4 °C
O=Cc1ccc(C(=O)O)cc1 [p-formyl_benzoic_acid] | 247 °C
O=C(O)c1ccc(CO)cc1 [p-hydroxymethyl_benzoic_acid] | 182 °C

Structure (SMILES) | melting point
NC(=O)c1ccc([N+](=O)[O-])cc1 [p-nitrobenzamide] | 201 °C
N#CCc1ccc([N+](=O)[O-])cc1 [p-nitrophenylacetonitrile] | 116 °C
Cc1ccc([N+](=O)[O-])cc1 [p-nitrotoluene] | 54 °C
CCOc1ccc(N)cc1 [p-phenetidine] | 3 °C
CNC(=O)c1ccc(-c2ccccc2)cc1 [p-phenyl-n-methylbenzamide] | 86 °C
Oc1ccc(-c2ccccc2)cc1 [p-phenylphenol] | 167 °C
C=Cc1ccc(-c2ccccc2)cc1 [p-phenylstyrene] | 119 °C
Cc1ccc(S(N)(=O)=O)cc1 [p-toluenesulfonamide] | 139 °C
Cc1ccc(C(=O)O)cc1 [p-toluic_acid] | 182 °C
Cc1ccc(N)cc1 [p-toluidine] | 44 °C
Cc1ccc(OC(=O)c2ccccc2)cc1 [p-tolyl_benzoate] | 70 °C
Cc1ccc(CC#N)cc1 [p-tolylacetonitrile] | 18 °C
C=Cc1ccc(N)cc1 [p-vinylaniline] | 26 °C
Cc1ccc(C)cc1 [p-xylene] | 13 °C
CC(=O)Nc1ccc(O)cc1 [paracetamol] | 169 °C
O=C(O)c1c(F)c(F)c(F)c(F)c1F [pentafluorobenzoic acid] | 102 °C
Oc1c(F)c(F)c(F)c(F)c1F [pentafluorophenol] | 34 °C
NNc1c(F)c(F)c(F)c(F)c1F [pentafluorophenylhydrazine] | 76 °C
CCCC(C)C1(CC)C(=O)NC(=O)NC1=O (stereo not given) [pentobarbital] | 130 °C
N#Cc1ccc2c(c1)N(CCCN1CCC(O)CC1)c1ccccc1S2 [perciyazine] | 116 °C
OCCN1CCN(CCCN2c3ccccc3Sc3ccc(Cl)cc32)CC1 [perphenazine] | 96.9 °C
CN1CCC2=C(C1)C(c1ccccc1)c1ccccc12 (stereo not given) [phenindamine] | 91 °C
O=C1OC(c2ccc(O)cc2)(c2ccc(O)cc2)c2ccccc21 [phenolphthalein] | 260 °C
c1ccc2c(c1)Nc1ccccc1S2 [phenothiazine] | 184 °C (3×) and 188 °C and 185 °C (2×)

Results, then the compound that gave them:

melting point | Structure (SMILES)
72 °C | COC(=O)NN [methyl carbazate]
-23 °C | COC(=O)CC#N [methyl cyanoacetate]
-100 °C | COC=O [methyl formate]
39 °C | COC(=O)CC(N)=O [methyl malonamate]
-113 °C | CCCSC [methyl n-propyl sulfide]
181 °C | CN(C)c1ccc(/N=N/c2ccccc2C(=O)O)cc1 [methyl red]
84 °C | COC(=O)c1cc(OC)c(OC)c(OC)c1 [methyl_3,4,5-trimethoxybenzoate]
33 °C | COC(=O)c1cccc(Br)c1 [methyl_3-bromobenzoate]
50 °C | COC(=O)c1ccc(OC)cc1 [methyl_4-methoxybenzoate]
64 °C | COC(=O)c1ccc(CC#N)cc1 [methyl_p-cyanomethyl_benzoate]
128 °C | O=C(S)CCCC(=O)S [methylenebis(thioacetic acid)]
-78 °C | C[Si](Cl)(Cl)Cl [methyltrichlorosilane]
147 °C | CCN(CC)CCNC(=O)c1cc(Cl)c(N)cc1OC [metoclopramide]
360 °C | CO[C@@]12[C@H](COC(N)=O)C3=C(C(=O)C(C)=C(N)C3=O)N1C[C@@H]1N[C@@H]12 [mitomycin c]
118 °C | Cc1ccc(C2(O)CCN(CCCC(=O)c3ccc(F)cc3)CC2)cc1 [moperone]
149 °C | Cc1c(CN2CCOC(c3ccccc3)C2C)c(=O)n(-c2ccccc2)n1C (stereo not given) [morazone]
-63 °C | CCNc1ccccc1 [n-ethylaniline]
-40 °C | CNC=O [n-methylformamide]
229 °C | CCn1cc(C(=O)O)c(=O)c2ccc(C)nc21 [nalidixic acid] [listing 1 of 2 here]
230 °C | CCn1cc(C(=O)O)c(=O)c2ccc(C)nc21 [nalidixic acid] [listing 2 of 2 here]

melting point | Structure (SMILES)
87 °C | COc1ccc2cc(C(C)CO)ccc2c1 (stereo not given) [naproxol]
138 °C | CC(=O)Oc1ccccc1C(=O)O [o-acetylsalicylic acid]
-35 °C | Cc1ccccc1Cl [o-chlorotoluene]
-31 °C | CCc1ccccc1CC [o-diethylbenzene]
-14 °C | Cc1ccccc1C#N [o-tolunitrile]
17 °C | CCCCCCCC(=O)O [octanoic_acid]
0 °C | CCCCCCCCN [octylamine]
14 °C | CCCCCCCC/C=CCCCCCCCC(=O)O [oleic acid]
-22 °C | CC(C)c1ccc(Br)cc1 [p-bromocumene]
-68 °C | Cc1ccc(C(C)C)cc1 [p-cymene]
66 °C | C=C(C)c1ccc(C(=C)C)cc1 [p-diisopropenylbenzene]
75 °C | CN(C)c1ccc(C=O)cc1 [p-dimethylaminobenzaldehyde]
47 °C | O=Cc1ccc(CO)cc1 [p-hydroxymethyl_benzaldehyde]
24 °C | CC(=O)c1ccc(C)cc1 [p-methylacetophenone]
28 °C | Cc1ccc(C#N)cc1 [p-tolunitrile]
10 °C | CCCCCCCCCCCCCCC [pentadecane]
-33.9 °C and -33.7 °C | CCCCC(=O)O [pentanoic acid] [listing 1 of 2 here]
-34 °C | CCCCC(=O)O [pentanoic acid] [listing 2 of 2 here]
-30 °C | CCOc1ccccc1 [phenetole]
